Values of other authors as cited in patent US20250042860A1, “Process for Chemical Synthesis of Ergothioneine and Methods of Use” (NANJING NUTRABUILDING BIO-TECH CO., LTD., priority 2022, published 2025).

Details: animals and humans, even at high doses

**Q.** Which “toxicity or adverse effects associated with ergothioneine administration” value does the source give for ergothioneine here?
**A.** Its value is “no toxicity or adverse effects”.
